In US20250204541A1, “GAS PHASE TREATMENT OF PRODUCE” (priority 2022, published 2025):
“Also recorded” adds a separate entry of the source.

System: mandarins
Assay: Visible appearance of vapor-treated mandarins
Format: in vivo
Settings: 72 hours vapor of 3 mL in a Petri dish
Experimental: Example 1. The antifungal activity of diallyl disulfide (DADS) vapor against Penicillium digitatum (Pd) was tested in mandarins. All samples were wounded by puncturing with a screw and infected by dispensing 1000 Pd spores suspended in 10 μL of water into each wound. The test groups consisted of mandarins that were: untreated; dipped in a solution of 1 g/L of imazalil; and exposed for 72 hours to the vapor of 3 mL of DADS in a Petri dish.
Example 2. The antifungal activity of allyl isothiocyanate (AITC) and DADS vapor was tested against Pd and Penicillium italicum (Pi) in mandarins. All samples were wounded by puncturing with a screw. Mandarins were infected by dispensing either 1000 Pd spores or 1000 Pi spores suspended in 10 μL into the wound. The test groups consisted of mandarins that were: uninfected and untreated; uninfected and treated by dipping in a solution of 1 g/L of imazalil; infected with Pd and untreated; infected with Pd and exposed to AITC; infected with Pd and exposed to DADS; infected with Pi and untreated; infected with Pi and exposed to AITC; and infected with Pi and exposed to DADS. Exposure to AITC or DADS consisted of exposing the mandarins for 72 hours to the vapor of 3 mL of the respective compound dispensed in a Petri dish. […]
Example 5. […] The test groups were then left at ambient temperature, high humidity, and assessed for Pd mold after 6 days. […]

SMILES: C=CCSSCC=C [DADS, diallyl disulfide]
- visible appearance of treated fruit: no visible degradation or discoloration; also recorded: No difference in appearance
